The assay addresses T1, KCNQ2/3 channels (Homo sapiens, UniProt O43525+O43526).
T1 construct: expressed in transfected cells
Put plainly: Fluorescence assay using a voltage sensitive dye (fluorimetry). The class given is cell-based. As to conditions: for EC50: IC50 where % efficacy is negative, read-out: Fluorimetry EC50/IC50. The source says: Method I. Fluorescence Assay Using a Voltage Sensitive Dye (Fluorimetry)
These voltage-sensitive dyes are fluorescent dyes and, therefore, are forming the link between cell potential influenced by KCNQ modulation and fluorescence intensity. A KCNQ agonist leads to an opening of the channel, potassium and dye efflux, a following hyperpolarization and a reduction of the inner fluorescence intensity in a kinetic protocol. If applying an ion jump by KCl depolarization, KCNQ agonists increase the ΔF/F value. An antagonist performs vice versa, respectively.
Therefore, ‘fluorimetry EC50’ is a measure for the compound potency. The compound efficacy is mirrored by ‘fluorimetry % efficacy’ (‘% Efficacy’) and refers to the maximum response achievable by the test compound, i.e. the plateau effect. This drug's plateau effect is related to the plateau effect, which can be achieved by applying a saturated concentration of a reference compound, e.g. Retigabine (50 μM), in independent wells of the same experimental plate or series.
[…] CHO-K1 cells expressing KCNQ2/3 channels are cultivated adherently at 37° C., 5% CO2 and 95% humidity in cell culture bottles (e.g. 80 cm^2 TC flasks, Nunc) with DMEM-high glucose (Sigma Aldrich, D7777) including 10% FCS (PAN Biotech, e.g. 3302-P270521) or alternatively MEM Alpha Medium (1×, liquid, Invitrogen, #22571), 10% fetal calf serum (FCS) (Invitrogen, #10270-106, heat-inactivated) and the necessary selection antibiotics.
The cell number is determined using a CASY™ cell counter (TCC, Schärfe System). Depending on the optimal density for each individual cell line, 20,000-30,000 cells/well/100 μl are seeded onto 96-well Corning™ CellBIND™ assay plates (Flat Clear Bottom Black Polystyrene Microplates, #3340). Freshly seeded cells are then left to settle for one hour at room temperature, followed by incubation for 24 hours at 37° C., 5% CO2 and 95% humidity.
The voltage-sensitive fluorescent dye from the Membrane Potential Assay Kit (Red™ Bulk format part R8123 for FLIPR, MDS Analytical Technologies™) is prepared by dissolving the contents of one vessel Membrane Potential Assay Kit Red Component A in 200 ml of extracellular buffer (ES buffer, 120 mM NaCl, 1 mM KCl, 10 mM HEPES, 2 mM CaCl2, 2 mM MgCl2, 10 mM glucose; pH 7.4). After removal of the nutrient medium, the cells are washed once with 200 μl of ES buffer, then loaded for 45 min at room temperature in 100 μl of dye solution in the dark.
Fluorescence measurements are carried out in a BMG Labtech FLUOstar™, BMG Labtech NOVOstar™ or BMG Labtech POLARstar™ instrument (525 nm excitation, 560 nm emission, Bottom Read mode). After incubation with the dye, 50 μl of the test substances in the desired concentrations, or 50 μl of ES buffer for control purposes, are applied to the wells of the assay plate and incubated for 30 min at room temperature while being shielded from light. The fluorescence intensity of the dye is then measured for 5 min and the fluorescence value F1 of each well is thus determined at a given, constant time. 15 μl of a KCl solution are then added to each well (final concentration of potassium ions 92 mM). The change in fluorescence intensity is subsequently monitored until all the relevant values have been obtained (mainly 5-30 min). At a given time post KCl application, a fluorescence value F2 is determined, in this case at the time of the fluorescence peak.
For calculation, the fluorescence intensity F2 is corrected for the fluorescence intensity F1, and the activity (ΔF/F) of the target compound on the potassium channel is determined as follows:
In order to determine whether a substance has agonistic activity,
[formula] can be related to
[formula] of control wells.
[formula] is determined by adding to the well only the buffer solution instead of the test substance, determining the value F1K of the fluorescence intensity, adding the potassium ions as described above, and measuring a value F2K of the fluorescence intensity.

Setting [1] is: CHO-K1, plateau effect relative to saturated retigabine (50 μM) = 100%, CHO-K1 cells expressing KCNQ2/3, negative values = antagonistic, read-out: Fluorimetry % efficacy (retigabine = 100%).
Setting [2] is: CHO-K1 cells expressing KCNQ2/3.

Experimental findings from patent US9168259B2 (GRÜNENTHAL GMBH, priority 2010, dated 2015) are described below.

Like-named read-outs stand apart in the source and are kept apart here.

T1 sequence (O43526 whole entry): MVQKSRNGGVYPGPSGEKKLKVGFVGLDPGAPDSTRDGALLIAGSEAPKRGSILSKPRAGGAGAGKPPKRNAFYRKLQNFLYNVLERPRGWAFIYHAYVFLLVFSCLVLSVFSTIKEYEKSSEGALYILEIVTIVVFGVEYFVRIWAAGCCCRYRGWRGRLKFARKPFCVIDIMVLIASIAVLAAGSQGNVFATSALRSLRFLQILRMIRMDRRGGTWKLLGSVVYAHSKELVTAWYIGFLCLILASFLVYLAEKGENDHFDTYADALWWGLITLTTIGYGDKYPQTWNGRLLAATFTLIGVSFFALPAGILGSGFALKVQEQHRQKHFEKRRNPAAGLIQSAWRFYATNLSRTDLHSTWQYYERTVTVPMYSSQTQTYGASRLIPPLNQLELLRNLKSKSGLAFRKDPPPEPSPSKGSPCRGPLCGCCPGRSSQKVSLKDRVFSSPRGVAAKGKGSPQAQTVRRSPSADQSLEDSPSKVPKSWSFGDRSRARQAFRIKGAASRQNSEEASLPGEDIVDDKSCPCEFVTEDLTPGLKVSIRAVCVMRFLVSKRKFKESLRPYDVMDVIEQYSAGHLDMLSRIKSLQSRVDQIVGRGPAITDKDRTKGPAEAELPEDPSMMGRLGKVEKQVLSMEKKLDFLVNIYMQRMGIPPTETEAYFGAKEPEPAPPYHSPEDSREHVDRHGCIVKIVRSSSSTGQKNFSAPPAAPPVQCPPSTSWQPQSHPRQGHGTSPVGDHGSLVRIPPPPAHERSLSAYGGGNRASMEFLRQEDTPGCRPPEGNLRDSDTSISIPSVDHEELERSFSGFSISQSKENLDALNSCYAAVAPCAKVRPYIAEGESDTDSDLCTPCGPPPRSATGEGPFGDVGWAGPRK
T1 sequence (O43525 whole entry): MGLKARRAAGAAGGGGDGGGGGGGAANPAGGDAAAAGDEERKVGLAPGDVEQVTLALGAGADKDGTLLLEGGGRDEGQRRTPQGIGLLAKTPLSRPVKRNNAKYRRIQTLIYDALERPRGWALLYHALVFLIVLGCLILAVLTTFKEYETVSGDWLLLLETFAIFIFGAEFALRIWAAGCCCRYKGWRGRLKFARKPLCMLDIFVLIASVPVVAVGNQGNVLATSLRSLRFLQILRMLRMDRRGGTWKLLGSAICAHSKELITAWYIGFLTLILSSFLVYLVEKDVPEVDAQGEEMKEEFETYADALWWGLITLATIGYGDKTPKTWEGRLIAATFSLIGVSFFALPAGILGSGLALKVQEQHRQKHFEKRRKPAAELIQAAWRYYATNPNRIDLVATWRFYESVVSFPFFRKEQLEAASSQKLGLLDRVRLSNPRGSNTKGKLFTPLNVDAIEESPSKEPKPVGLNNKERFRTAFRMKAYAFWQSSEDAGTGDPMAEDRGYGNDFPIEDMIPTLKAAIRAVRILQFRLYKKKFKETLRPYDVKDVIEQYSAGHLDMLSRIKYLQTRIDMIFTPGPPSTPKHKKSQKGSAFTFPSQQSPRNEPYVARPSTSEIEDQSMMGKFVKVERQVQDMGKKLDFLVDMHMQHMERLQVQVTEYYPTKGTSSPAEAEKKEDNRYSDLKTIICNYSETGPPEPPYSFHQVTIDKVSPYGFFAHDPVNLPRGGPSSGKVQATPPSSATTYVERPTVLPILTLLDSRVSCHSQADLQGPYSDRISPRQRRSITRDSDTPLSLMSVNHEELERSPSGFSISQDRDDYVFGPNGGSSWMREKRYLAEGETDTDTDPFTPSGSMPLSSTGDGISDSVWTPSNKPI

`C/C=C/c1nc(N2CCOCC2)cc(C)c1C(=O)NCc1cccc(F)c1` [Example 9, N-[(3-Fluorophenyl)-methyl]-4-methyl-6-morpholin-4-yl-2-[(E)-prop-1-enyl]pyridine-3-carboxylic acid amide]: under setting [1], the Emax is 174%. Besides, the EC50 under setting [2] was found to be 0.74 µM. The corresponding values for `CCSc1nc(N(C)c2ccccn2)cc(C)c1C(=O)NCc1cccc(F)c1` [Example 170, 2-Ethylsulfanyl-N-[(3-fluorophenyl)-methyl]-4-methyl-6-(methyl-pyridin-2-yl-amino)-pyridine-3-carboxylic acid amide] are 84% and 1.24 µM.

For `CCSc1nc(N2CCOC[C@H]2CO)cc(C)c1C(=O)NCc1cccc(F)c1` [Example 264, 2-Ethylsulfanyl-N-[(3-fluorophenyl)-methyl]-6-[(3R)-3-(hydroxymethyl)-morpholin-4-yl]-4-methyl-pyridine-3-carboxylic acid amide], the Emax under setting [1] amounted to 184%. Under setting [2], the EC50 turned out to be 1.56 µM. The corresponding values for `CCSc1nc(N2CCOCC2)cc(C)c1C(=O)NCc1cccc(C(F)(F)F)c1` [Example 59, 2-Ethylsulfanyl-4-methyl-6-morpholin-4-yl-N-[[3-(trifluoromethyl)phenyl]methyl]-pyridine-3-carboxylic acid amide] are 128% and 0.07 µM. As to `CCSc1nc(N2CCOCC2)cc(C)c1C(=O)NCc1ccc(C(F)(F)F)cc1` [Example 60, 2-Ethylsulfanyl-4-methyl-6-morpholin-4-yl-N-[[4-(trifluoromethyl)-phenyl]methyl]-pyridine-3-carboxylic acid amide], the Emax under setting [1] is 128%. Further, the EC50 under setting [2] is 0.126 µM. The like results for `CCSc1nc(N2CCN(CC(F)(F)F)CC2)cc(C)c1C(=O)NCc1cccc(F)c1` [Example 251, 2-Ethylsulfanyl-N-[(3-fluorophenyl)-methyl]-4-methyl-6-[4-(2,2,2-trifluoro-ethyl)-piperazin-1-yl]-pyridine-3-carboxylic acid amide] were, in that order, 97% and 1.59 µM. The like results for `CCN(C)c1nc(N2CCOCC2)cc(C)c1C(=O)NCc1ccc(Cl)cc1` [Example 191, N-[(4-Chlorophenyl)-methyl]-2-(ethyl-methyl-amino)-4-methyl-6-morpholin-4-yl-pyridine-3-carboxylic acid amide] were, in that order, 214% and 0.265 µM. The corresponding values for `CCSc1nc(N(C)Cc2ccc(C(F)(F)F)cc2)cc(C)c1C(=O)NCc1cccc(F)c1` [Example 297, 2-Ethylsulfanyl-N-[(3-fluorophenyl)-methyl]-4-methyl-6-[methyl-[[4-(trifluoromethyl)-phenyl]-methyl]-amino]-pyridine-3-carboxylic acid amide] are 125% and 0.177 µM.

`CCSc1nc(N(C)CC2CCCCO2)cc(C)c1C(=O)NCc1cccc(F)c1` (stereo not drawn) [Example 5, 2-Ethylsulfanyl-N-[(3-fluorophenyl)-methyl]-4-methyl-6-[methyl-(tetrahydro-pyran-2-yl-methyl)-amino]-pyridine-3-carboxylic acid amide]: the Emax under setting [1] is 111%. Under setting [2], the EC50 was 0.269 µM. The like results for `CCOc1nc(N2CCOCC2)cc(C)c1C(=O)NCCCC(F)(F)F` [Example 133, 2-Ethoxy-4-methyl-6-morpholin-4-yl-N-(4,4,4-trifluoro-butyl)-pyridine-3-carboxylic acid amide] were, in that order, 235% and 0.392 µM.

With `CCSc1nc(N2CCOCC2)cc(C)c1C(=O)NCCCc1ccncc1` [Example 115, 2-Ethylsulfanyl-4-methyl-6-morpholin-4-yl-N-(3-pyridin-4-yl-propyl)-pyridine-3-carboxylic acid amide], the Emax under setting [1] turned out to be 96%. Further, the EC50 under setting [2] came to 7.97 µM. The like results for `CCSc1nc(N2CCOCC2)cc(C)c1C(=O)NCCCC(C)(C)F` [Example 319, 2-Ethylsulfanyl-N-(4-fluoro-4-methyl-pentyl)-4-methyl-6-morpholin-4-yl-pyridine-3-carboxylic acid amide] were, in that order, 233% and 0.348 µM.

Consider `Cc1cc(N2CCOCC2)nc(OCC(F)F)c1C(=O)NCc1ccc(Cl)cc1` [Example 270, N-[(4-Chlorophenyl)-methyl]-2-(2,2-difluoro-ethoxy)-4-methyl-6-morpholin-4-yl-pyridine-3-carboxylic acid amide], for which the Emax under setting [1] amounted to 97%. Also, the EC50 under setting [2] amounted to 0.024 µM. The like results for `CCSc1nc(N2CCOCC2)cc(C)c1C(=O)NCc1ccc2c(c1)OCO2` [Example 134, N-(1,3-Benzodioxol-5-yl-methyl)-2-ethylsulfanyl-4-methyl-6-morpholin-4-yl-pyridine-3-carboxylic acid amide] were, in that order, 159% and 1.14 µM.

`CCSc1nc(N2CCOC[C@@H]2COC)cc(C)c1C(=O)NCc1ccc(Cl)cc1` [Example 257, N-[(4-Chlorophenyl)-methyl]-2-ethylsulfanyl-6-[(3S)-3-(methoxymethyl)-morpholin-4-yl]-4-methyl-pyridine-3-carboxylic acid amide]: the Emax under setting [1] turned out to be 125%. Moreover, under setting [2], the EC50 turned out to be 0.023 µM. For `CCSc1nc(N2CCN(C)CC2)cc(C)c1C(=O)NCc1cccc(F)c1` [Example 31, 2-Ethylsulfanyl-N-[(3-fluorophenyl)-methyl]-4-methyl-6-(4-methyl-piperazin-1-yl)-pyridine-3-carboxylic acid amide], the Emax under setting [1] amounted to 23%. As for `CCOc1nc(N2CCOC[C@H]2C)cc(C)c1C(=O)NCc1ccc(F)cc1` [Example 182, 2-Ethoxy-N-[(4-fluorophenyl)-methyl]-4-methyl-6-[(3R)-3-methyl-morpholin-4-yl]-pyridine-3-carboxylic acid amide], the Emax under setting [1] came out at 146%. The EC50 under setting [2] came to 0.125 µM. The like results for `CCSc1nc(N2CC(C)OC(C)C2)cc(C)c1C(=O)NCc1cccc(F)c1` (stereo not drawn) [Example 66, 6-(2,6-Dimethyl-morpholin-4-yl)-2-ethylsulfanyl-N-[(3-fluorophenyl)-methyl]-4-methyl-pyridine-3-carboxylic acid amide] were, in that order, 109% and 0.983 µM.

In the case of `CCSc1nc(N(C)Cc2ccc(F)cc2)cc(C)c1C(=O)NCc1cccc(F)c1` [Example 52, 2-Ethylsulfanyl-N-[(3-fluorophenyl)-methyl]-6-[(4-fluorophenyl)-methyl-methyl-amino]-4-methyl-pyridine-3-carboxylic acid amide], under setting [1], the Emax was 122%. The EC50 under setting [2] came out at 0.235 µM. As for `CCSc1nc(N2CCC(C(=O)OC)CC2)cc(C)c1C(=O)NCc1cccc(F)c1` [Example 13], where the note is “CHO-K1, read-out: Fluorimetry % efficacy (retigabine = 100%)”, the Emax was found to be 145%. In addition, the EC50 under setting [2] was found to be 1.09 µM. For the compound `CCC(C)c1nc(N2CCOC[C@H]2C)cc(C)c1C(=O)NCc1ccc(F)cc1` (stereo partly drawn) [Example 194, N-[(4-Fluorophenyl)-methyl]-4-methyl-6-[(3R)-3-methyl-morpholin-4-yl]-2-(1-methyl-propyl)-pyridine-3-carboxylic acid amide], the Emax under setting [1] came out at 189%. Further, the EC50 under setting [2] was 0.031 µM.

For the compound `CCSc1nc(N(C)c2ccncc2)cc(C)c1C(=O)NCc1cccc(F)c1` [Example 200, 2-Ethylsulfanyl-N-[(3-fluorophenyl)-methyl]-4-methyl-6-(methyl-pyridin-4-yl-amino)-pyridine-3-carboxylic acid amide], the Emax under setting [1] turned out to be 22%.
